The values that follow come from PMC11648915, “Identification and development of TRPM4 antagonists to counteract neuronal excitotoxicity” (iScience, 2024).

Read-outs that look alike come from different tables or passages of the source.

The target of one series is human TRPM4 (Homo sapiens, UniProt Q8TD43). Description: QPatch automated patch clamp on TRPM4-expressing HEK293 cells. The format is cell-based. To be noted: hsTRPM4-expressing HEK293 cells. The procedure: QPatchHTX, an automated electrophysiology platform, was used in single hole mode. One day before use human TRPM4- or TRPM5-expressing HEK293 cells were seeded in a T75 flask at a density of 53k cells per cm^2 and at passages < 23. […] The extracellular solution was (in mM): CaCl2 (7), MgCl2 (2), KCl (5), HEPES (10), NaCl (70), NMDG (70); pH 7.4 with NaOH. The intracellular solution was (in mM): HEPES (10), NMDG (100), NaCl (50), EGTA (20), MgCl2 (1), CaCl2 (21); pH 7.2 with HCl. […] This protocol was repeated every 7 seconds. […] FFA was used as reference compound and applied cumulatively with each concentration incubating at a minimum of 20 voltage protocol runs (140 seconds) with the current after addition of FFA being calculated as full block. […] Each compound was measured at least 3 time independently.
On the technique in general: Patch clamp records ionic current or voltage across a cell membrane.

Series [1] deals with potassium channel human Ether-a-go-go Related Gene (hERG) (Homo sapiens, UniProt Q12809). The experiment in a line: hERG channel inhibition. The format is cell-based. An excerpt: We next used in vitro assays to test absorption, distribution, metabolism, excretion and toxicity (ADMET) parameters for selected compounds. We assessed compound absorption using parallel artificial membrane permeability (PAMPA) and Caco-2 cell permeability assays (cut-off criterion >2 × 10^−6 cm s^−1). […] To assess potential off-target activity of our compounds that could be relevant for safety in humans, we conducted comprehensive in vitro pharmacology using the commercially available and widely used SafetyScreen44 interaction panel[60] covering eight protein families.

Series [2] is described as follows: Microsome clearance (mouse). The format is in vitro ADME. Particulars: mouse liver microsomes, 45 min, NADPH. The procedure: (§1) Human or mouse liver microsomes were incubated with the test compound at a concentration of 1 μM for 45 min in the presence of cofactor (NADPH in excess). Samples were collected at various time points, and % remaining of test compound was determined using mass spectrometry (LC-MS/MS) to calculate hepatic clearance rate (L/h/kg).
A general note: Liver microsomes are a subcellular fraction often used to study metabolism.

Series [3] in a line: Microsome clearance (human). To be noted: human liver microsomes, 45 min, NADPH, read-out: Microsomes (h) clearance (converted). The format is in vitro ADME. The procedure: as §1
Another series concerns the target T1, CYP2D6 (Homo sapiens, UniProt P10635).
T1 construct: purchased BD Gentest
Description: CYP inhibition assay 2D6. The format is in vitro ADME. The procedure:
(§2) The half-maximal inhibitory concentration (IC50) for cytochrome P450 (CYP) enzymes was determined using an in vitro enzyme inhibition assay. Recombinant CYP enzymes or human liver microsomes from BD Gentest, in 0.1 M phosphate buffer pH 7.4, containing native CYP enzymes were incubated with the test compound at various concentrations (1, 3, 10 and 30 μM) and containing 0.5% DMSO and 0.1% BSA final concentrations. 1 mM of NADPH cofactor was added and the reaction was started by a rapid increase of temperature until 37°C.

The next series has as its target T2, CYP3A4 (Homo sapiens, UniProt P08684).
T2 construct: purchased BD Gentest
The experiment in a line: CYP inhibition assay 3A4. The format is in vitro ADME. The procedure: as §2

The subject of series [4] is primary mouse neuronal cultures. Description: Glutamate-induced excitotoxicity assay (RealTime-Glo viability). Particulars: 5 μM, primary mouse neuronal cultures. The format is cell-based. The procedure: To evaluate the in vitro efficacy of our developed compounds, we employed primary mouse neuronal cultures (PNCs) and conducted glutamate-induced excitotoxicity assays. Cultures were pre-treated with respective Series 1 and Series 3 compounds before glutamate exposure, and neuronal viability was assessed 15 h post-stimulation with glutamate.
Figure 3 Neuroprotective in vitro evaluation and in vivo pharmacokinetics (A) In vitro evaluation of compound activity on glutamate-induced excitotoxicity in mature primary neuronal cultures. Neuronal cultures were treated with 5 μM of the specified compound or vehicle control 5 h prior to glutamate stimulation, assessing compound rescue activity and toxicity relative to minimal (Vehicle +0 μM Glu) and maximal (Vehicle +50 μM Glu) excitotoxicity. Time course of a representative compound with virtual endpoint at 15 h post stimulation and assay window definition (left). Toxicity of compound treated cultures with and without glutamate stimulation (right). Data are represented as mean and 95% confidence interval; n ≥ 4; ∗p < 0.05, ∗∗p < 0.01, ∗∗∗p < 0.001; One-sample Wilcoxon signed-rank test. […] Mitochondrial membrane potential was measured by the mean fluorescence intensity of TMRE normalized to MitoTracker. Data are represented as mean ± SEM; n = 5; paired t-test. (C) In vivo pharmacokinetics of four selected compounds. Time course of compound concentration in the brain, heart, and plasma after a single dose via intraperitoneal (i.p.) or intravenous (i.v.) application. Data are represented as mean ± SEM. Half-life estimates by non-compartmental analysis are shown as vertical line and IC50 value as dashed horizontal line. (D) Compound concentration in the brain relative to respective IC50 concentrations after a single dose via intra-peritoneal or intra-venous routes. Also see Figure S6.
Excitotoxicity assays were performed using primary mouse neuronal cultures between 14 and 17 days in vitro (DIV). Cell viability was measured using RealTime-Glo MT Cell Viability Assay (Promega, catalog no. G9711) according to the manufacture protocol. Compounds were co-administered with RealTime-Glo reagents, and luciferase measurements were conducted using the Tecan-Spark M10 microplate reader with environmental control set to 37°C and 5% CO2. Neuronal cultures were stimulated with either glutamate or vehicle five hours after compound application and monitored for an additional 20 hours. To adjust for inter-well variability, arbitrary light units were normalized to a steady signal prior to glutamate addition for each well. Toxicity was calculated relative to the minimal cell viability at 15 hours post glutamate stimulation and cell viability of the PBS vehicle control.

Setting [5] is: TDI, read-out: Cyp IC50 TDI 3A4.

As usually defined, the IC50 is the concentration that gives 50% inhibition.

Sequence of potassium channel human Ether-a-go-go Related Gene (hERG) (Q12809 whole entry): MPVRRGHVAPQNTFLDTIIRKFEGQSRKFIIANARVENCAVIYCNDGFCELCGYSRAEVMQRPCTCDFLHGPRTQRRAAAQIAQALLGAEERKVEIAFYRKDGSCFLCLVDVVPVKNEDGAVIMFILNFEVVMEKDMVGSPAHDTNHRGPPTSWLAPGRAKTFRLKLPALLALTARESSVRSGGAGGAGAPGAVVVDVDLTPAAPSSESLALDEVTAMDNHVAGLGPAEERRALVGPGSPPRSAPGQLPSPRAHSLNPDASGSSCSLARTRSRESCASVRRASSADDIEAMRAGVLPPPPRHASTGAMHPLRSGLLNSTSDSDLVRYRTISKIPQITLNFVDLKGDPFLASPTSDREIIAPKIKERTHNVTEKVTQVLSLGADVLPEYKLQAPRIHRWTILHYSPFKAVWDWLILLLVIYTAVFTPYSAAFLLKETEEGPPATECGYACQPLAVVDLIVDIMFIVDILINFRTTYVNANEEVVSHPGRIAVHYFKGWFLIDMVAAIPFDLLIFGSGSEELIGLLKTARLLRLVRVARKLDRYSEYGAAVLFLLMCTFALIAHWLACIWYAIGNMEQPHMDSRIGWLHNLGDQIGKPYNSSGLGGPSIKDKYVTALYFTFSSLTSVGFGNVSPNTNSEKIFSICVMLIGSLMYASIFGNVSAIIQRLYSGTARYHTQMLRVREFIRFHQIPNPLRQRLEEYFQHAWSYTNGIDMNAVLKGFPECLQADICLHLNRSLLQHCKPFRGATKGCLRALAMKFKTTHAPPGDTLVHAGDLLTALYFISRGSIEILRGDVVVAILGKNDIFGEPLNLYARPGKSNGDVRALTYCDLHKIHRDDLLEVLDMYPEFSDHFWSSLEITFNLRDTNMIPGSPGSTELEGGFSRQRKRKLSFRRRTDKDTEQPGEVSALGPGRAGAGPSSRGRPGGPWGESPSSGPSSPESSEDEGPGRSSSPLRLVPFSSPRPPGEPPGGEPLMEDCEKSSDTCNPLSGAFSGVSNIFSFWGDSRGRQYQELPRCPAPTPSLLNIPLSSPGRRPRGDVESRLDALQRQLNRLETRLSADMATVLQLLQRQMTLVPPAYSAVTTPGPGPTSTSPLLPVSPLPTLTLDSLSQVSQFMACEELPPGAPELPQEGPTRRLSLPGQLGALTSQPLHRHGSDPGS
T1 sequence (P10635 whole entry): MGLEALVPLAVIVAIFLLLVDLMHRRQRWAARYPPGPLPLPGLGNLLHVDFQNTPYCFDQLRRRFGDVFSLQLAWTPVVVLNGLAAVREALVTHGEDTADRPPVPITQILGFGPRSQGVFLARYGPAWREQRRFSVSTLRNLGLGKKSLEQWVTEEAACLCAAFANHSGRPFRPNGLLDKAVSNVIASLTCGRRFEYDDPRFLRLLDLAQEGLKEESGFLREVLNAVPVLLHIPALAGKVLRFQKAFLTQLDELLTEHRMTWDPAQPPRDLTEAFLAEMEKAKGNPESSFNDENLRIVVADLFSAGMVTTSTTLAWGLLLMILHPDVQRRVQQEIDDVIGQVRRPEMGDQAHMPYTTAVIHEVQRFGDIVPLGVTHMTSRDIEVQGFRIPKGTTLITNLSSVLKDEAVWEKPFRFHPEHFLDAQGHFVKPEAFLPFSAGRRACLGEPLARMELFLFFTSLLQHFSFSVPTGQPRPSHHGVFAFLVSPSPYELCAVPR
Sequence of human TRPM4 (Q8TD43 whole entry): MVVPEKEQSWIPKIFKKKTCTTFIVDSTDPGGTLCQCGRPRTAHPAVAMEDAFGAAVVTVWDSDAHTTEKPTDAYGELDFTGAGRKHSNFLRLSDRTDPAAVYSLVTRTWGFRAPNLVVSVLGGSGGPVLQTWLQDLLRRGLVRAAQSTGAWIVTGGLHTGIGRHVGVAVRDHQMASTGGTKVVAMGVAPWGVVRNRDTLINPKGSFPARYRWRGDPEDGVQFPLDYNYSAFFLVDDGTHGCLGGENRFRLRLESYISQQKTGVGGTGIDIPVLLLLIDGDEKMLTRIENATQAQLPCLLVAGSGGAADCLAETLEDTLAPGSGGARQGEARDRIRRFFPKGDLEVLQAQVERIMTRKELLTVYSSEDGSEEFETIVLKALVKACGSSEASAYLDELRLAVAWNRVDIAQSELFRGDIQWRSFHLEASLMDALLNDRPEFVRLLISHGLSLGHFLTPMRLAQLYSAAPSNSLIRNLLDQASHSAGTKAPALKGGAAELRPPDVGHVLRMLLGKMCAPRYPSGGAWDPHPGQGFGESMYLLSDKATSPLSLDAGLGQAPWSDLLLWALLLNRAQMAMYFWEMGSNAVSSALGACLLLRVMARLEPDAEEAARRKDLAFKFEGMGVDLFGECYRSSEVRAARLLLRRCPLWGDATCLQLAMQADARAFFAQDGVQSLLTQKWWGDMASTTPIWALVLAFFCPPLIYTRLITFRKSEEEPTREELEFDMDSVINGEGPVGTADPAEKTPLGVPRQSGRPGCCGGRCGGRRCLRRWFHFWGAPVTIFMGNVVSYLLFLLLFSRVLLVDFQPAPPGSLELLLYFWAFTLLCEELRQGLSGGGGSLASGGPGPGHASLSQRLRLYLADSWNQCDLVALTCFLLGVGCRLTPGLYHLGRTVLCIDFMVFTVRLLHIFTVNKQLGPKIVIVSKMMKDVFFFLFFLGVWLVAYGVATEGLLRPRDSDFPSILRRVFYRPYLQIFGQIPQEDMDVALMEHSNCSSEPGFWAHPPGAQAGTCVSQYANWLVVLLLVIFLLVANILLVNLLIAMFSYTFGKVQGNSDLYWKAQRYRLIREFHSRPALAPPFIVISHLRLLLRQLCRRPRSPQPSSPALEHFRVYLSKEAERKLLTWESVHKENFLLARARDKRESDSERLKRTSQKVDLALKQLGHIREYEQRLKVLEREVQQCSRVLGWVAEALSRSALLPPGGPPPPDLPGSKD
T2 sequence (P08684 whole entry): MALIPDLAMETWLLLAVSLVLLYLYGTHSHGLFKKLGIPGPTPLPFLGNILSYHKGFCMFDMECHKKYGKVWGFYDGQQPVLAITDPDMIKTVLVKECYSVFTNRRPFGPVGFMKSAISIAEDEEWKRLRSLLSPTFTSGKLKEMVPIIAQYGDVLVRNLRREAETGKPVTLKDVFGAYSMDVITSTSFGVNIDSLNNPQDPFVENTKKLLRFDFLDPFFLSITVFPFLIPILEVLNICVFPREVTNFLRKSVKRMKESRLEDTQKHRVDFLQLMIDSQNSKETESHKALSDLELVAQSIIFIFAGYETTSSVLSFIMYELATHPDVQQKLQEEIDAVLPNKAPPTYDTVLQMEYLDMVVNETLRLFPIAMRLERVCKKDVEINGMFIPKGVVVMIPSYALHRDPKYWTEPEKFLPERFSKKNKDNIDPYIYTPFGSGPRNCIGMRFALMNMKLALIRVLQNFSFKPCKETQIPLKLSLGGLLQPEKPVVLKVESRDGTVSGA

For the molecule `Fc1cccc(-c2ccccc2NCc2nc3ccccc3o2)c1` [CMP343], the 50% inhibitory concentration (IC50) on human TRPM4 is 0.09 µM; in series [1] it was more than 30 µM; at CYP2D6, more than 50 µM; on CYP3A4 (setting [5]), more than 50 µM; on CYP3A4 (read-out: Cyp IC50 3A4) it was more than 50 µM. Besides, the CLint scaled at 1 μM is more than 900 mL/min/kg in series [2] and 570 mL/min/kg in series [3].

On to `Fc1ccccc1-c1ccccc1NCc1nc2ccccc2o1` [CMP353], for which the 50% inhibitory concentration (IC50) on human TRPM4 is 0.08 µM; in series [1], more than 10 µM; against CYP2D6 it was more than 50 µM; on CYP3A4 (read-out: Cyp IC50 3A4), more than 29.6 µM. The CLint scaled at 1 μM is more than 900 mL/min/kg in series [2] and 605 mL/min/kg in series [3]. Besides, the “Compound toxicity in neuronal cultures” value in series [4] is reported as “observed toxicity”.

For the molecule `c1csc(-c2ccccc2NCc2nc3ccccc3o2)c1` [CMP355], the 50% inhibitory concentration (IC50) was 0.59 µM on human TRPM4; more than 10 µM in series [1]; more than 50 µM at CYP2D6; more than 50 µM on CYP3A4 (setting [5]); more than 50 µM at CYP3A4 (read-out: Cyp IC50 3A4). Moreover, the figures for the CLint scaled at 1 μM in series [2] and in series [3] were more than 900 mL/min/kg and 558 mL/min/kg, respectively. The “Compound toxicity in neuronal cultures” value in series [4] is on record as “observed toxicity”.

With `Cc1ccsc1-c1ccccc1NCc1nc2ccccc2o1` [CMP369], the IC50 in series [1] is more than 10 µM; on CYP2D6 (human, pH 7.4), more than 50 µM; against CYP3A4 (human, pH 7.4), more than 50 µM. Also, the CLint scaled at 1 μM in series [2] was more than 900 mL/min/kg; in series [3], 600 mL/min/kg. Further, the “Compound toxicity in neuronal cultures” value in series [4] is given as “observed toxicity”.

Turning to `Nc1ccccc1-c1ccccc1NCc1nc2ccccc2o1` [CMP457], the CLint scaled at 1 μM is 900 mL/min/kg in series [2] and 243 mL/min/kg in series [3]. Also, the concentration for half-maximal inhibition (IC50) against CYP2D6 was more than 50 µM. The “Compound toxicity in neuronal cultures” value in series [4] is “observed toxicity”.
